Source: patent publication US12011444B2, “N-substituted indole derivatives as PGE2 receptor modulators” (Idorsia Pharmaceuticals Ltd, priority 2015, dated 2024)

Columns and labels:
EP4 = EP4 (Homo sapiens (Human), UniProt P35408); experiment: hEP4 cAMP assay (BT549 breast cancer cells, HTRF cAMP); format: cell-based; settings: antagonistic activity; mean values where measured multiple times
Description: Plate is pre-incubated 45 minutes at room temperature. Subsequently, 2.5 microliters of PGE2 (final conc. 6 nM) are transferred into the assay plate. Plate is incubated 30 minutes at room temperature.

EP2 = EP2 (Homo sapiens (Human), UniProt P43116);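 further: antagonism of PGE2-stimulated cAMP accumulation in SF295 human glioblastoma cells with endogenous EP2, cAMP read by HTRF, expressed relative to DMSO control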
Sequence of EP2 (P43116 whole entry): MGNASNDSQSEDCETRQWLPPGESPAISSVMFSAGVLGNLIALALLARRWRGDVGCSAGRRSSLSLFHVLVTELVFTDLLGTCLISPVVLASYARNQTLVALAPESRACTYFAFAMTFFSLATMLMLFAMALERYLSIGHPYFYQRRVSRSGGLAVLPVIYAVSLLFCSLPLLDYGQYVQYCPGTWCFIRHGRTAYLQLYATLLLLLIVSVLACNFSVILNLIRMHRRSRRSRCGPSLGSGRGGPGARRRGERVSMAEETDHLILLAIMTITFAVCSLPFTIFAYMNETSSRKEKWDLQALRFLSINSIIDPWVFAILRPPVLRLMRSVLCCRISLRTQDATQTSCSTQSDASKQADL

Sequence of EP4 (P35408 whole entry): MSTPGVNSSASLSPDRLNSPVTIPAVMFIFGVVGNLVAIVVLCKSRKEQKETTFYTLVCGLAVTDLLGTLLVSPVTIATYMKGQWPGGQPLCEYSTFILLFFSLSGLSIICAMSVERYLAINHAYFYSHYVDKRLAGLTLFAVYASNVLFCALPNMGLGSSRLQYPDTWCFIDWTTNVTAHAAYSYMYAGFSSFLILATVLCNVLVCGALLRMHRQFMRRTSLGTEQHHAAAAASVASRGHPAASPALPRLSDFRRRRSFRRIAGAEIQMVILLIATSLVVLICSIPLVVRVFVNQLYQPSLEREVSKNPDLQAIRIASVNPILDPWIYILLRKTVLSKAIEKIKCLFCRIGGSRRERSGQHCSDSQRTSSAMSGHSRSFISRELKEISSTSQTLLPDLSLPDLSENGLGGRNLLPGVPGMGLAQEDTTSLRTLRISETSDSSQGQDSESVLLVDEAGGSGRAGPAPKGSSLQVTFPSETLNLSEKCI

| Compound | IC50 (EP4) [nM] | IC50 (EP2) [nM] |
| --- | --- | --- |
| COc1cc(F)cc2c1cc(C)n2CCNc1cc(-c2ccc(-c3oncc3C)cc2)ncn1 [compound 736, [2-(6-Fluoro-4-methoxy-2-methyl-indol-1-yl)-ethyl]-{6-[4-(4-methyl-isoxazol-5-yl)-phenyl]-pyrimidin-4-yl}-amine] | 399 | 39 |
| COc1cc(F)c(F)c2c1cc(C)n2CCNc1cc(-c2ccc(C(=O)CC#N)cc2)ncn1 [compound 711, 3-(4-{6-[2-(6,7-Difluoro-4-methoxy-2-methyl-indol-1-yl)-ethylamino]-pyrimidin-4-yl}-phenyl)-3-oxo-propionitrile] | 429 | 16 |
| CCOc1cc(-c2cc(NCCn3c(C)cc4c(OC)ccc(F)c43)ncn2)cc(CC)c1C(=O)O [compound 618] | 395 | 24 |
| CCCc1cc(-c2cc(NCCn3c(C)cc4c(OC)ccc(Cl)c43)ncn2)cc(Cl)c1C(=O)O [compound 513] | 130 | 24 |
| COc1ccc(F)c2c1cc(C)n2CCNc1cc(-c2cc(Cl)c(C(=O)O)c(OCC(C)C)c2)ncn1 [compound 690] | 35 | 5 |
| Cc1cc(F)cc2c1cc(C)n2CCNc1cc(-c2ccc(C(=O)O)c(OC(F)F)c2)ncn1 [compound 600] | 319 | 14 |
| COc1cc(F)cc2c1cc(C)n2CCNc1cc(-c2ccc(C(=O)O)c(OC(F)F)c2)ncn1 [compound 630] | 142 | 6 |
| CCCOc1cc(-c2cc(NCCn3c(C)cc4c(C)cc(F)c(F)c43)ncn2)cc(Cl)c1C(=O)O [compound 628] | 254 | 89 |
| Cc1ccc(F)c2c1cc(C)n2CCNc1cc(-c2ccc(C(=O)O)c(NS(C)(=O)=O)c2)ncn1 [compound 479] | 233 | 127 |
| CCOc1cc(-c2cc(NCCn3c(C)cc4c5c(cc(Cl)c43)OCO5)ncn2)ccc1C(=O)O [compound 454, 4-{6-[2-(5-Chloro-7-methyl-[1,3]dioxolo[4,5-e]indol-6-yl)-ethylamino]-pyrimidin-4-yl}-2-ethoxy-benzoic acid] | 445 | 14 |
| COc1cccc2c1cc(C)n2CCNc1cc(-c2ccc(-c3csc(C)n3)cc2)ncn1 [compound 566] | 537 | 46 |
| CCOc1cc(-c2cc(NCCn3c(C)cc4c(Cl)ccc(F)c43)ncn2)cc(Cl)c1C(=O)O [compound 450] | 117 | 9 |
| Cc1cc2c(F)c(F)cc(F)c2n1CCNc1cc(-c2ccc(-c3noc(=O)[nH]3)cc2)ncn1 [compound 682, 3-(4-{6-[2-(4,5,7-Trifluoro-2-methyl-indol-1-yl)-ethylamino]-pyrimidin-4-yl}-phenyl)-4H-[1,2,4]oxadiazol-5-one] | 251 | 12 |
| COc1ccc(F)c2c1cc(C)n2CCNc1cc(-c2ccc(Cn3cccn3)c(F)c2)ncn1 [compound 457] | 480 | 888 |
| COc1ccc(Cl)c2c1cc(C)n2CCNc1cc(-c2ccc(C(=O)O)c(OC(F)(F)F)c2)ncn1 [compound 605] | 829 | 48 |
| Cc1ccc(F)c2c1cc(C)n2CCNc1cc(-c2ccc(-c3cnc(CCC(=O)O)o3)cc2)ncn1 [compound 643] | 706 | 294 |
| Cc1ccc(F)c2c1cc(C)n2CCNc1cc(-c2ccc3nn[nH]c3c2)ncn1 [compound 739, [6-(3H-Benzotriazol-5-yl)-pyrimidin-4-yl]-[2-(7-fluoro-2,4-dimethyl-indol-1-yl)-ethyl]-amine] | 450 | 43 |
| CCOc1cc(-c2cc(NCCn3c(C)cc4c(OC)ccc(F)c43)ncn2)ccc1-c1nnn[nH]1 [compound 661] | 39 | 4 |
| COc1ccc(Cl)c2c1cc(C)n2CCNc1cc(-c2ccc(C(=O)O)c(CC(C)C)c2)ncn1 [compound 536] | 172 | 27 |
| CCCOc1cc(-c2cc(NCCn3c(C)cc4c(OC)cc(F)cc43)ncn2)ccc1C(=O)O [compound 493] | 119 | 21 |
| COc1cccc2c1cc(C)n2CCNc1cc(-c2ccc(C(=O)O)c(OCC(C)C)c2)ncn1 [compound 485] | 245 | 3 |
| COc1ccc(F)c2c1cc(C)n2CCNc1cc(-c2ccc(C(=O)O)c(CC(C)C)c2)nc(C)n1 [compound 625] | 70 | 16 |
| Cc1c(F)cc(F)c2c1cc(C)n2CCNc1cc(-c2ccc(C(=O)O)c(OC(F)F)c2)ncn1 [compound 510] | 216 | 20 |
| COc1cc(F)cc2c1cc(C)n2CCNc1cc(-c2cc(C(F)(F)F)c(C(=O)O)s2)nc(C)n1 [compound 541] | 25 | 19 |
| CCNc1cc(-c2cc(NCCn3c(C)cc4c(OC)ccc(F)c43)ncn2)ccc1C(=O)O [compound 397] | 20 | 1 |

| Compound | IC50 (EP4) [nM] | IC50 (EP2) [nM] |
| --- | --- | --- |
| COc1cccc2c1cc(C)n2CCNc1cc(-c2cc(Cl)c(C(=O)O)c(OCC(F)(F)F)c2)ncn1 [compound 720] | 150 | 10 |
| CCNc1cc(-c2cc(NCCn3c(C)cc4c5c(cc(Cl)c43)OCO5)ncn2)ccc1C(=O)O [compound 460, 4-{6-[2-(5-Chloro-7-methyl-[1,3]dioxolo[4,5-e]indol-6-yl)-ethylamino]-pyrimidin-4-yl}-2-ethylamino-benzoic acid] | 146 | 4 |
| CCNC(=O)Nc1ccc(-c2cc(NCCn3c(C)cc4c(OC)ccc(Cl)c43)ncn2)cc1OC [compound 554] | 65 | 56 |
| COc1ccc(F)c2c1cc(C)n2CCNc1cc(-c2ccc3oc(C)nc3c2)ncn1 [compound 688] | 680 | 80 |
| CCOc1cc(-c2cc(NCCn3c(C)cc4c(OC)cccc43)ncn2)ccc1CNC1CC1 [compound 463] | 741 | 252 |
| COc1ccc(F)c2c1cc(C)n2CCNc1cc(-c2cc(C(F)(F)F)c(C(=O)O)s2)ncn1 [compound 446] | 8 | 16 |
| COc1ccc(F)c2c1cc(C)n2CCNc1cc(-c2ccc(-c3csc(C(=O)O)n3)cc2)ncn1 [compound 476, 4-(4-{6-[2-(7-Fluoro-4-methoxy-2-methyl-indol-1-yl)-ethylamino]-pyrimidin-4-yl}-phenyl)-thiazole-2-carboxylic acid] | 48 | 18 |
| CCOc1cc(-c2cc(NCCn3c(Cl)cc4c(Cl)ccc(F)c43)ncn2)ccc1C(=O)O [Example 778, 4-{6-[2-(2,4-Dichloro-7-fluoro-indol-1-yl)-ethylamino]-pyrimidin-4-yl}-2-ethoxy-benzoic acid] | 175 | 15 |
| Cc1ccc(F)c2c1cc(C)n2CCNc1cc(-c2ccc(-c3ccccn3)cc2)ncn1 [compound 561] | 374 | 102 |
| CCOC(=O)c1sc(-c2cc(NCCn3c(C)cc4c(OC)ccc(F)c43)ncn2)cc1OCC [Example 790, 3-Ethoxy-5-{6-[2-(7-fluoro-4-methoxy-2-methyl-indol-1-yl)-ethylamino]-pyrimidin-4-yl}-thiophene-2-carboxylic acid ethyl ester] | 101 | 42 |
| COc1ccc(Cl)c2c1cc(C)n2CCNc1cc(-c2ccc(C(=O)O)c(OC(F)F)c2)ncn1 [compound 631] | 320 | 14 |
| COc1ccc(F)c2c1cc(C)n2CCNc1cc(-c2ccc(-c3n[nH]cc3C(=O)O)cc2)ncn1 [compound 593] | 435 | 157 |
| Cc1cc(F)c(F)c2c1cc(C)n2CCNc1cc(-c2ccc(C(=O)O)c(CC(C)C)c2)ncn1 [compound 502] | 114 | 149 |
| COc1cc(F)cc2c1cc(C)n2CCNc1cc(-c2ccc(-c3coc(C)n3)cc2)ncn1 [compound 585] | 203 | 31 |
| CCCc1cc(-c2cc(NCCn3c(C)cc4c(OC)c(F)ccc43)ncn2)cc(Cl)c1C(=O)O [compound 517] | 373 | 97 |
| CCOc1cc(-c2cc(NCCn3c(C)cc4c(C)cc(F)c(F)c43)ncn2)ccc1C(=O)O [compound 431] | 191 | 51 |
| COc1cc(F)cc2c1cc(C)n2CCNc1cc(-c2ccc(-c3cnc(N)o3)cc2)ncn1 [compound 572] | 45 | 18 |
| CCSc1cc(-c2cc(NCCn3c(C)cc4c(OC)c(F)cc(Cl)c43)ncn2)ccc1C(=O)O [compound 542] | 522 | 44 |
| Cc1nc(CCC(=O)O)oc1-c1ccc(-c2cc(NCCn3c(C)cc4c(C)ccc(F)c43)ncn2)cc1 [compound 648] | 893 | 195 |
| COc1c(F)cc(Cl)c2c1cc(C)n2CCNc1cc(-c2ccc(C(=O)O)c(SC)c2)ncn1 [compound 448] | 508 | 46 |
| Cc1ccc(F)c2c1cc(C)n2CCNc1cc(-c2ccc3c(ccn3C)c2)ncn1 [compound 704, [2-(7-Fluoro-2,4-dimethyl-indol-1-yl)-ethyl]-[6-(1-methyl-1H-indol-5-yl)-pyrimidin-4-yl]-amine] | 177 | 47 |
| CCCc1cc(-c2cc(NCCn3c(C)cc4cc(F)cc(Cl)c43)ncn2)cc(Cl)c1C(=O)O [compound 426] | 759 | 17 |
| COc1cc(F)cc2c1cc(C)n2CCNc1cc(-c2ccc(-c3cc(F)ccn3)cc2)ncn1 [Example 759, [2-(6-Fluoro-4-methoxy-2-methyl-indol-1-yl)-ethyl]-{6-[4-(4-fluoro-pyridin-2-yl)-phenyl]-pyrimidin-4-yl}-amine] | 760 | 55 |
| CCOc1cc(-c2cc(NCCn3c(C)cc4c(OC)cccc43)ncn2)ccc1-c1nnn[nH]1 [compound 664] | 95 | 4 |
| Cc1cc(F)cc2c1cc(C)n2CCNc1cc(-c2ccc(C(=O)O)c(CC(C)C)c2)ncn1 [compound 422] | 148 | 34 |
